Measurements published in US20250248970A1, “NOVEL SUBSTITUTED FLUORINATED N-PROPYL-PYRROLIDINE COMPOUNDS, PROCESSES FOR THEIR PREPARATION AND THERAPEUTIC USES THEREOF” (SANOFI, priority 2022, published 2025).

Biological target: T1, ERα (Homo sapiens, UniProt P03372)
T1 construct: host or cells: MCF7
T1 sequence (P03372 1-595): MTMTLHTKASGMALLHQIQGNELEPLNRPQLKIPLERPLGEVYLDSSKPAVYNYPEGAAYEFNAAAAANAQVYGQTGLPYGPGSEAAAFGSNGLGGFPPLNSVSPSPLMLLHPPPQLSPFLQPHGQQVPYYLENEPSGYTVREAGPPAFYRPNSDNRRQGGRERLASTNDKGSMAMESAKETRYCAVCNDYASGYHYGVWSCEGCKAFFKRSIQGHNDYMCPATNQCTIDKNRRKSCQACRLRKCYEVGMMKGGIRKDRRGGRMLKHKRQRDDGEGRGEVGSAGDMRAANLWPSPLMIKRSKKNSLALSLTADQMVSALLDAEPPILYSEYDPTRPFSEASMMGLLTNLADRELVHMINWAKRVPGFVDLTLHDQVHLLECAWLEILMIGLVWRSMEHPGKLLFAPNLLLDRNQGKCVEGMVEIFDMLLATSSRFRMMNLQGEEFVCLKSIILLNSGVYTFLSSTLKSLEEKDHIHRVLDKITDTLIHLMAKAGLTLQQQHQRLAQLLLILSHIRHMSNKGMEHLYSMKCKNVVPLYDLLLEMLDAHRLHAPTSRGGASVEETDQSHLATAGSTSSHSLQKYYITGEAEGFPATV
Experiment: Estrogen receptor degradation activity (breast cancer cell ERα in cell western assay)
Format: cell-based
Conditions: MCF7 cells, 0.3 μM, 4 hours, % of ERα levels decrease relative to fulvestrant
Procedure: Said test involves measuring the in vitro degradation activity of the compounds of the Table 1a.
The measurements of the degradation activities were made using a breast cancer cell ERα in cell western assay as described hereunder.
MCF7 cells (ATCC) were seeded in 384 wells microplate (collagen coated) at a concentration of 10000 cells/30 μL per well in red phenol free MEM alpha medium (invitrogen) containing 5% charcoal dextran striped FBS. The following day, 9 points serial 1:5 dilution of each compound was added to the cells in 2.5p L at final concentrations ranging from 0.3-0.0000018 μM (in table 2), or 0.1 μM for fulvestrant (using as positive control). At 4 hours post compound addition the cells were fixed by adding 25 μL of formalin (final concentration 5% formalin containing 0.1% triton) for 10 minutes at room temperature and then washed twice with PBS. Then, 50 μL of LI-COR blocking buffer containing 0.1% Triton was added to plate for 30 minutes at room temperature. LI-COR blocking buffer was removed and cells were incubated overnight at cold room with 50 μL anti-ER rabbit monoclonal antibody (Thermo scientific MA1-39540) diluted at 1:1000 in LI-COR blocking buffer containing 0.1% tween-20. Wells which were treated with blocking buffer but no antibody were used as background control. Wells were washed twice with PBS (0.1% tween-20) and incubated at 37° C. for 60 minutes in LI-COR (0.1% tween-20) containing goat anti-rabbit antibody Alexa 488 (1:1000) and Syto-64 a DNA dye (2 μM final concentration). Cells were then washed 3 times in PBS and scanned in ACUMEN explorer (TTP-Labtech). Integrated intensities in the green fluorescence and red fluorescence were measured to determine the levels of ERα and DNA respectively.
The degradation activity with respect to estrogen receptors in this test is given by the concentration which degrades 50% of the estrogen receptor (or IC50) in nM.
The % of ERα levels decrease were determined as follows: % inhibition=100*(1−(sample−fulvestrant: DMSO−fulvestrant)).

SMILES | % Degradation At 0.3 μM [%]
Cl.O=C(O)c1ccc2c(c1)OCCC(c1ccc(Cl)cc1Cl)=C2c1ccc(CC2CCN(CCCF)C2)cc1 (single isomer, unassigned; isomer 1) [Compound 7, 4-(2,4-dichlorophenyl)-5-(4-((1-(3-fluoropropyl)pyrrolidin-3-yl)methyl)phenyl)-2,3-dihydrobenzo[b]oxepine-8-carboxylic acid hydrochloride, Isomer 1] | 80
O=C(O)c1ccc2c(c1)CCCC(c1ccc(Cl)cc1Cl)=C2c1ccc(CC2CCN(CCC(F)F)C2)cc1 (single isomer, unassigned; isomer 1) [Compound 9, 8-(2,4-dichlorophenyl)-9-(4-((1-(3,3-difluoropropyl)pyrrolidin-3-yl)methyl)phenyl)-6,7-dihydro-5H-benzo[7]annulene-3-carboxylic acid, Isomer 1] | 80
O=C(O)c1ccc2c(c1)CCCC(c1ccc(F)cc1F)=C2c1ccc(CC2CCN(CCC(F)F)C2)cc1 (single isomer, unassigned; isomer 1) [Compound 10, 8-(2,4-difluorophenyl)-9-(4-((1-(3,3-difluoropropyl)pyrrolidin-3-yl)methyl)phenyl)-6,7-dihydro-5H-benzo[7]annulene-3-carboxylic acid, Isomer 1] | 84
COc1ccc(C2=C(c3ccc(CC4CCN(CCCF)C4)cc3)c3ccc(C(=O)O)cc3CCC2)cn1 (single isomer, unassigned; isomer 1) [Compound 14, 9-(4-((1-(3-fluoropropyl)pyrrolidin-3-yl)methyl)phenyl)-8-(6-methoxypyridin-3-yl)-6,7-dihydro-5H-benzo[7]annulene-3-carboxylic acid, Isomer 1] | 88
Cc1c(Cl)cccc1C1=C(c2ccc(CC3CCN(CCCF)C3)cc2)c2ccc(C(=O)O)cc2CCC1 (single isomer, unassigned; isomer 1) [Compound 15, 8-(3-chloro-2-methylphenyl)-9-(4-((1-(3-fluoropropyl)pyrrolidin-3-yl)methyl)phenyl)-6,7-dihydro-5H-benzo[7]annulene-3-carboxylic acid, Isomer 1] | 88
Cc1cc(F)ccc1C1=C(c2ccc(CC3CCN(CCCF)C3)cc2)c2ccc(C(=O)O)cc2CCC1 (single isomer, unassigned; isomer 1) [Compound 17, 8-(4-fluoro-2-methylphenyl)-9-(4-((1-(3-fluoropropyl)pyrrolidin-3-yl)methyl)phenyl)-6,7-dihydro-5H-benzo[7]annulene-3-carboxylic acid, Isomer 1] | 84
O=C(O)c1ccc2c(c1)CCCC(c1ccc(F)cc1C(F)(F)F)=C2c1ccc(CC2CCN(CCCF)C2)cc1 (single isomer, unassigned; isomer 1) [Compound 18, 8-(4-fluoro-2-(trifluoromethyl)phenyl)-9-(4-((1-(3-fluoropropyl)pyrrolidin-3-yl)methyl)phenyl)-6,7-dihydro-5H-benzo[7]annulene-3-carboxylic acid, Isomer 1] | 86
Cl.O=C(O)c1ccc2c(c1)CCCC(c1ccc(F)cc1F)=C2c1ccc(CC2CCN(CCCF)C2)cc1 (single isomer, unassigned; isomer 1) [Compound 19, 8-(2,4-difluorophenyl)-9-(4-((1-(3-fluoropropyl)pyrrolidin-3-yl)methyl)phenyl)-6,7-dihydro-5H-benzo[7]annulene-3-carboxylic acid hydrochloride, Isomer 1] | 86
Cc1c(F)cccc1C1=C(c2ccc(CC3CCN(CCCF)C3)cc2)c2ccc(C(=O)O)cc2CCC1.Cl (single isomer, unassigned; isomer 1) [Compound 20, 8-(3-fluoro-2-methylphenyl)-9-(4-((1-(3-fluoropropyl)pyrrolidin-3-yl)methyl)phenyl)-6,7-dihydro-5H-benzo[7]annulene-3-carboxylic acid hydrochloride, Isomer 1] | 90
O=C(O)C(F)(F)F.O=C(O)c1ccc2c(c1)CCCC(c1ccc(Cl)cc1Cl)=C2c1ccc(CC2(F)CCN(CCCF)C2)cc1 (single isomer, unassigned; isomer 1) [Compound 23, 8-(2,4-dichlorophenyl)-9-(4-((3-fluoro-1-(3-fluoropropyl)pyrrolidin-3-yl)methyl)phenyl)-6,7-dihydro-5H-benzo[7]annulene-3-carboxylic acid, 2,2,2-trifluoroacetic acid, Isomer 1] | 69
Cl.O=C(O)c1ccc2c(c1)SCC(c1ccc(Cl)cc1Cl)=C2c1ccc(CC2CCN(CCCF)C2)cc1 (single isomer, unassigned; isomer 1) [Compound 25, 3-(2,4-dichlorophenyl)-4-(4-((1-(3-fluoropropyl)pyrrolidin-3-yl)methyl)phenyl)-2H-thiochromene-7-carboxylic acid hydrochloride, Isomer 1] | 68
O=C(O)c1ccc2c(c1)CCCC(c1ccc(Cl)cc1Cl)=C2c1ccc(C(F)(F)C2CCN(CCCF)C2)cc1 (single isomer, unassigned; isomer 1) [Compound 26, 8-(2,4-dichlorophenyl)-9-(4-(difluoro(1-(3-fluoropropyl)pyrrolidin-3-yl)methyl)phenyl)-6,7-dihydro-5H-benzo[7]annulene-3-carboxylic acid, Isomer 1] | 84
Cl.O=C(O)c1ccc2c(c1)CCCC(c1ccc(F)cc1Cl)=C2c1ccc(CC2CCN(CCC(F)F)C2)cc1 (single isomer, unassigned; isomer 1) [Compound 27, 8-(2-chloro-4-fluorophenyl)-9-(4-((1-(3,3-difluoropropyl)pyrrolidin-3-yl)methyl)phenyl)-6,7-dihydro-5H-benzo[7]annulene-3-carboxylic acid hydrochloride, Isomer 1] | 73
Cc1c(C2=C(c3ccc(CC4CCN(CCC(F)F)C4)cc3)c3ccc(C(=O)O)cc3CCC2)cccc1C(F)(F)F.Cl (single isomer, unassigned; isomer 1) [Compound 28, 9-(4-((1-(3,3-difluoropropyl)pyrrolidin-3-yl)methyl)phenyl)-8-(2-methyl-3-(trifluoromethyl)phenyl)-6,7-dihydro-5H-benzo[7]annulene-3-carboxylic acid hydrochloride, Isomer 1] | 78
Cl.Oc1ccc2c(c1)CCCC(c1ccc(Cl)cc1Cl)=C2c1ccc(CC2CCN(CCCF)C2)cc1 (single isomer, unassigned; isomer 1) [Compound 29, 8-(2,4-dichlorophenyl)-9-(4-((1-(3-fluoropropyl)pyrrolidin-3-yl)methyl)phenyl)-6,7-dihydro-5H-benzo[7]annulene-3-ol hydrochloride, Isomer 1] | 76
Cl.Oc1ccc2c(c1)CCCC(c1ccc(Cl)cc1Cl)=C2c1ccc(CC2CCN(CCC(F)F)C2)cc1 (single isomer, unassigned; isomer 1) [Compound 31, 8-(2,4-dichlorophenyl)-9-(4-((1-(3,3-difluoropropyl)pyrrolidin-3-yl)methyl)phenyl)-6,7-dihydro-5H-benzo[7]annulen-3-ol hydrochloride, Isomer 1] | 73
Cc1cc(F)cc(C)c1C1=C(c2ccc(CC3CCN(CCC(F)F)C3)cc2)c2ccc(C(=O)O)cc2CCC1.Cl (single isomer, unassigned; isomer 1) [Compound 32, 9-(4-((1-(3,3-difluoropropyl)pyrrolidin-3-yl)methyl)phenyl)-8-(4-fluoro-2,6-dimethylphenyl)-6,7-dihydro-5H-benzo[7]annulene-3-carboxylic acid hydrochloride, Isomer 1] | 76
